According to patent publication US8058009B2, “Target protein and target gene in drug designing and screening method” (Reverse Proteomics Research Institute Co., Ltd., priority 2004, dated 2011):

Experiments:
[1] = biological target: T1, FLJ31146-derived protein (Homo sapiens, UniProt Q9BSE4); assay: Biacore S51 surface plasmon resonance binding to FLJ31146-derived protein
T1 construct: made in house; host or cells: wheat germ cell-free synthesis system (PROTEIOS, Toyobo)
T1 sequence (Q9BSE4 1-406): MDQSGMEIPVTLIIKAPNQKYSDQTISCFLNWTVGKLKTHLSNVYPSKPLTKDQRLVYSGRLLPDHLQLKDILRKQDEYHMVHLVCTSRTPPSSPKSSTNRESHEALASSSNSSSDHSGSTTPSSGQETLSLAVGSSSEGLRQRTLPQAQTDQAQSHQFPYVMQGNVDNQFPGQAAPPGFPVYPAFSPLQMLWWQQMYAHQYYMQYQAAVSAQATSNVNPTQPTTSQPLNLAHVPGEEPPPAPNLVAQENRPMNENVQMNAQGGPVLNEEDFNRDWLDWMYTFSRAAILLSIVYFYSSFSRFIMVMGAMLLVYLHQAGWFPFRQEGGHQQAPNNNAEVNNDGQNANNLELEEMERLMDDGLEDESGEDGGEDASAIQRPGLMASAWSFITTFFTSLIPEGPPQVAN
Procedure: (§1) A desired gene of a human full-length cDNA clone was BP-reacted with the PCR cloning vector Gateway pDONR201 using the Invitrogen Gateway system per the kit protocol to yield an entry vector. […]
(§2) The surface of the CM5 sensor chip for S51 commercially available from Biacore Company was subjected to an NTA treatment with 1 M EDC, 1.33 M NHS and 16 mg/ml AB-NTA (pH 9.2) to prepare an NTA sensor chip for S51. […] A correction for the effect of DMSO contained in the compound solutions and running buffer (solvent correction) was performed on the basis of measured results from separately prepared solutions mimicking the running buffer, and containing 3.8 to 5.1% of DMSO (8 points). The compound characterization assay program for Biacore S51 was performed to measure the interactions between immobilized ligands (proteins) and analytes (compounds; 62.5 μM to 0.244 μM), and the results were analyzed using a dedicated software program. […]

[2] = biological target: T2, FLJ10335-derived protein (Homo sapiens, UniProt Q9NW38, S77P); assay: Biacore S51 surface plasmon resonance binding to FLJ10335-derived protein
T2 construct: made in house; host or cells: wheat germ cell-free synthesis system (PROTEIOS, Toyobo)
T2 sequence (Q9NW38 1-375 S77P): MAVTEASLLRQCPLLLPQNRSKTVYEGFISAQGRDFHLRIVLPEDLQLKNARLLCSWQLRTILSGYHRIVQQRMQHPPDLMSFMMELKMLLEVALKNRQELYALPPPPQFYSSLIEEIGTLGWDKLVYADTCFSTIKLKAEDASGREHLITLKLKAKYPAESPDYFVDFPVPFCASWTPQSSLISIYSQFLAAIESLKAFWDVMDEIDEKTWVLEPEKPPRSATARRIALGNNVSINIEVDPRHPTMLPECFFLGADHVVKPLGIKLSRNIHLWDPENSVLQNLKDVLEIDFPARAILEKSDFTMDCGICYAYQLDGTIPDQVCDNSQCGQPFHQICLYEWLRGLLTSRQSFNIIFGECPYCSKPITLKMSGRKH
Procedure: as §1, §2

[3] = biological target: T3, FLJ11045-derived protein (Homo sapiens, UniProt Q9BXT8, E1380K); assay: Biacore S51 surface plasmon resonance binding to FLJ11045-derived protein
T3 construct: made in house; host or cells: wheat germ cell-free synthesis system (PROTEIOS, Toyobo)
T3 sequence (Q9BXT8 949-1581 isoform Q9BXT8-4 E1338K): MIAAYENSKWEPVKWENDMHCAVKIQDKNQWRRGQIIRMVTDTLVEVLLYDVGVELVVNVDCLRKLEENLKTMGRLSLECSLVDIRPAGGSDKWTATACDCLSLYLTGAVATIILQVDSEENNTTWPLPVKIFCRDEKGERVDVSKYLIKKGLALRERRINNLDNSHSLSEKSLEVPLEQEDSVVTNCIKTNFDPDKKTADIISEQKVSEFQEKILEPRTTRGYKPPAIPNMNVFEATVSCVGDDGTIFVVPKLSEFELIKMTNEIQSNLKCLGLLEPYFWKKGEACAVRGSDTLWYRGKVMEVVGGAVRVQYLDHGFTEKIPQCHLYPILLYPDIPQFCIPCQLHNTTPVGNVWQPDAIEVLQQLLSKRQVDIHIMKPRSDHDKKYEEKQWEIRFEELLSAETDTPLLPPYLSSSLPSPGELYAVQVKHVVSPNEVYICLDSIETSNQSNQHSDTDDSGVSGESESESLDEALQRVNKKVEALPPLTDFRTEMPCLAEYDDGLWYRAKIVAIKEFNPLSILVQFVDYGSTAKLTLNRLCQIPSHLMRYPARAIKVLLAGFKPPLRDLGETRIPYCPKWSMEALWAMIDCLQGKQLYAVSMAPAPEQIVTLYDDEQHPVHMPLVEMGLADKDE
Source text: A desired gene of a human full-length cDNA clone was BP-reacted with the PCR cloning vector Gateway pDONR201 using the Invitrogen Gateway system per the kit protocol to yield an entry vector. As the destination vector for the Gateway system, a Gateway cassette having a Gateway recombinant sequence was introduced to allow the utilization of the Gateway system on the basis of pEU3-NII (Toyobo), which matches with a cell-free protein synthesis system (PROTEIOS) of Toyobo Co., Ltd., which employs a wheat germ extract, and a double tag destination vector modified using the PCR method to allow the expression of a peptide having a histidine tag and a FLAG tag sequence in the N-terminal region of the expressed protein was prepared.
The prepared double tag destination vector and entry vector were […] using the Invitrogen Gateway system per the protocol and the Escherichia coli competent cell DH5α was transformed therewith; a clone incorporating the expression vector was selected. A plasmid was prepared from the obtained clone using the QIAfilter Midi kit (QUIAGEN) per the kit protocol. The plasmid obtained was subjected to phenol/chloroform treatment per the protocol for PROTEIOS (Toyobo) to inactivate the RNase to yield a purified expression plasmid.
A recombinant protein was synthesized using a cell-free protein synthesis system (PROTEIOS) of Toyobo Co., Ltd., which employs a wheat germ extract. Subsequently, mRNA was prepared from the expression plasmid acquired by the method described in section 1 above per the protocol for PROTEIOS. With 20 μg of the mRNA acquired, a protein was synthesized per the protocol for PROTEIOS using two wells of a 96-well microtiter plate. The protein synthesized was subjected to high-speed centrifugation, the precipitate was removed, and the resulting soluble fraction was purified using ANTI-FLAG M2 Affinity Gel (SIGMA Company) having an anti-FLAG tag antibody immobilized hereto per the protocol, to yield a purified protein.
as §2

[4] = biological target: T4, FLJ11474-derived protein (Homo sapiens, UniProt Q9BVC4); assay: Biacore S51 surface plasmon resonance binding to FLJ11474-derived protein
T4 construct: made in house; host or cells: wheat germ cell-free synthesis system (PROTEIOS, Toyobo)
T4 sequence (Q9BVC4 1-325 isoform Q9BVC4-5): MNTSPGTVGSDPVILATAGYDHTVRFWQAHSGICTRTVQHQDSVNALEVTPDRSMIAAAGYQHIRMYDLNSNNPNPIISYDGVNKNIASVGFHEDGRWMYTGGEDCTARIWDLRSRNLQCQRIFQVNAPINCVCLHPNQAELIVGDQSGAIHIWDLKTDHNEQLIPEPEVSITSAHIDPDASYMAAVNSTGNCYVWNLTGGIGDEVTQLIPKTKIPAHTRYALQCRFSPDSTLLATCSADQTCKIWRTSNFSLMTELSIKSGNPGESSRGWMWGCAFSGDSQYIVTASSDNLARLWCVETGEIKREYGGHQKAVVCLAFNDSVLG
Procedure: as §1, §2

[5] = biological target: T5, FLJ14467-derived protein (Homo sapiens, UniProt Q9HB40); assay: Biacore S51 surface plasmon resonance binding to FLJ14467-derived protein
T5 construct: made in house; host or cells: wheat germ cell-free synthesis system (PROTEIOS, Toyobo)
T5 sequence (Q9HB40 27-452): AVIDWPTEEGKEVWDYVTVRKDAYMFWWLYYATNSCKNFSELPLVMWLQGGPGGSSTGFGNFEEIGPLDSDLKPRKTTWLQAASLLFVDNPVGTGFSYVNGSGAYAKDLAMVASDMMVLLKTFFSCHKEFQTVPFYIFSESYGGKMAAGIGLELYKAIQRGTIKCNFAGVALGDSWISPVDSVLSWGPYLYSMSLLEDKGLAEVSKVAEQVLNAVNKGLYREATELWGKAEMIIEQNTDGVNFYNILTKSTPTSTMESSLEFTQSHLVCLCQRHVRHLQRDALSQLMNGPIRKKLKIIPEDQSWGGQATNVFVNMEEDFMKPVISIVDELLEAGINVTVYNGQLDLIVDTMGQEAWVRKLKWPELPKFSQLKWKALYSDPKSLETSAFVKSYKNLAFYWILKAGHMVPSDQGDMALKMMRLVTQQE
Procedure: as §1, §2

[6] = biological target: T6, FLJ14797-derived protein (Homo sapiens, UniProt Q9UGJ1); assay: Biacore S51 surface plasmon resonance binding to FLJ14797-derived protein
T6 construct: made in house; host or cells: wheat germ cell-free synthesis system (PROTEIOS, Toyobo)
T6 sequence (Q9UGJ1 whole entry): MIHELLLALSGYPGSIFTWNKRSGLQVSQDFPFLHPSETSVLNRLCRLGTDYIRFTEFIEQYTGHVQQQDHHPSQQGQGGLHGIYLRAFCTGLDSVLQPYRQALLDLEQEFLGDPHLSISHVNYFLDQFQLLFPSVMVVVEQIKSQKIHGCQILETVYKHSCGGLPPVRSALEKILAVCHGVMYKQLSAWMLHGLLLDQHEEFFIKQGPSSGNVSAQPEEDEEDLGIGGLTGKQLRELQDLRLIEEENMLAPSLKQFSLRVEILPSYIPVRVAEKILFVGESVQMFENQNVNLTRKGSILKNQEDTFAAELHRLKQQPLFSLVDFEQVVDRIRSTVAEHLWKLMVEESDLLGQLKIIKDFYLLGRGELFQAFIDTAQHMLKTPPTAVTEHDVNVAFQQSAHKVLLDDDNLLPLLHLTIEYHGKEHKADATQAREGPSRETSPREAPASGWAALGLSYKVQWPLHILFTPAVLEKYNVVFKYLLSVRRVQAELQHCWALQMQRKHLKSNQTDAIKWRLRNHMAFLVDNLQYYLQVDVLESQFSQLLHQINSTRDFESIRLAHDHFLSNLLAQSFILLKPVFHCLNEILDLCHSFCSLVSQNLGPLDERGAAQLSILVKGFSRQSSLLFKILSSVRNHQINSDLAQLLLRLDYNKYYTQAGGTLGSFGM
Procedure: as §1, §2

CC1(C)S[C@@H]2[C@H](NC(=O)[C@H](N)c3ccccc3)C(=O)N2[C@H]1C(=O)O [ampicillin]
interaction with the protein (binding level dose-proportional, saturated at high doses) [1]: interact specifically

N[C@@H](C(=O)N[C@@H]1C(=O)N2C(C(=O)O)=C(Cl)CS[C@H]12)c1ccccc1 [cefaclor]
interaction with the protein (binding level dose-proportional, saturated at high doses) [2]: interact specifically | Kd ([3]; Biacore S51, immobilized FLJ11045-derived protein, analyte 62.5 μM to 0.244 μM, read-out: binding dissociation constant Kd): 12.4 µM | interaction with the protein (binding level dose-proportional, saturated at high doses) ([3]; FLJ11045-derived protein, Biacore S51): interact specifically | interaction with the protein (binding level dose-proportional, saturated at high doses) [4]: interact specifically | interaction with the protein (binding level dose-proportional, saturated at high doses) [5]: interact specifically

O=C(c1ccc(F)cc1)C1CCN(CCn2c(=O)[nH]c3ccccc3c2=O)CC1 [ketanserin]
interaction with the protein (binding level dose-proportional, saturated at high doses) [6]: interact specifically
